{"source": "patent US20090306031A1", "about": "“5alpha-ANDROSTANE-3,6,17-TRIONE (KNELLER'S TRIONE) AND METHODS OF USE THEREFOR” (priority 2009, published 2009)", "key": {"[1]": {"assay": "Pilot study: adverse events and safety observations in study subjects", "type": "in vivo, human"}, "[2]": {"assay": "Pilot study: sex hormone profile in men after oral daily Kneller's Trione", "type": "in vivo, human", "conditions": "for ending testosterone-to-estradiol ratio: day 14, ratio to 1; for change of testosterone-to-estradiol ratio: starting vs ending (14 days); for ESTRADIOL / BIOAVAILABLE TESTOSTERONE / DHT / TOTAL TESTOSTERONE: person", "description": "The first study subject was a person who was dosed once per day orally with 25 mg per day of Kneller's Trione.\nThe second study subject was a person who was dosed once per day orally with 50 mg per day of Kneller's Trione.\nThe third study subject was a person who was dosed once per day orally with 100 mg per day of Kneller's Trione."}, "[3]": {"conditions": "25 mg daily oral, 14 days vs baseline"}, "[4]": {"conditions": "50 mg daily oral, 14 days vs baseline"}, "[5]": {"conditions": "100 mg daily oral, 14 days vs baseline"}}}
{"smiles": "C[C@]12CCC(=O)C[C@@H]1C(=O)C[C@@H]1[C@@H]2CC[C@]2(C)C(=O)CC[C@@H]12", "note": "[Kneller's Trione, 5α-androstane-3,6,17-trione]", "values": [{"measurement": "adverse event", "setting": "[1]; 750 mg per day oral, subject withdrew from the pilot study", "value": "occurrence of a priaprism"}, {"measurement": "liver function, kidney function, blood lipid levels, blood pressure, heart rate, respirations, body temperature", "setting": "[1]; every subject, frequent intervals, oral daily dosages 25 mg to 750 mg", "value": "within medically established normal ranges and values"}, {"measurement": "other adverse events noted by any study subject", "setting": "[1]; oral daily dosages 25 mg to 750 mg", "value": "No other adverse events were noted"}, {"measurement": "increase in plasma bioavailable testosterone", "setting": "[2]; [3]", "value": 20, "unit": "%"}, {"measurement": "increase in plasma total testosterone", "setting": "[2]; [3]", "value": 13, "unit": "%"}, {"measurement": "reduction in plasma estradiol", "setting": "[2]; [3]", "value": 51, "unit": "%"}, {"measurement": "ending testosterone-to-estradiol ratio", "setting": "[2]; 25 mg daily oral, starting ratio 133.83 to 1", "value": 308.26}, {"measurement": "change of testosterone-to-estradiol ratio", "setting": "[2]; 25 mg daily oral", "value": 130, "unit": "%"}, {"measurement": "change in plasma estradiol", "setting": "[2]; [4]", "value": "no change"}, {"measurement": "increase in plasma bioavailable testosterone", "setting": "[2]; [4]", "value": 21, "unit": "%"}, {"measurement": "increase in plasma total testosterone", "setting": "[2]; [4]", "value": 28, "unit": "%"}, {"measurement": "ending testosterone-to-estradiol ratio", "setting": "[2]; 50 mg daily oral, starting ratio 238.06 to 1", "value": 305.56}, {"measurement": "change of testosterone-to-estradiol ratio", "setting": "[2]; 50 mg daily oral", "value": 28, "unit": "%"}, {"measurement": "increase in plasma bioavailable testosterone", "setting": "[2]; [5]", "value": 146, "unit": "%"}, {"measurement": "increase in plasma total testosterone", "setting": "[2]; [5]", "value": 93, "unit": "%"}, {"measurement": "reduction in plasma estradiol", "setting": "[2]; [5]", "value": 26, "unit": "%"}, {"measurement": "ending testosterone-to-estradiol ratio", "setting": "[2]; 100 mg daily oral, starting ratio 102.17 to 1", "value": 266.18}, {"measurement": "change of testosterone-to-estradiol ratio", "setting": "[2]; 100 mg daily oral", "value": 161, "unit": "%"}, {"measurement": "added benefit over a dose of 100 mg per day", "setting": "[2]; 250 mg per day oral", "value": "did not seem to offer any added benefit"}, {"measurement": "total testosterone and bioavailable testosterone levels", "setting": "[2]; 250 mg per day oral", "value": "raised total testosterone and bioavailable testosterone levels substantially and safely"}, {"measurement": "added benefit over a dose of 100 mg per day", "setting": "[2]; 500 mg per day oral", "value": "did not seem to offer any added benefit"}, {"measurement": "total testosterone and bioavailable testosterone levels", "setting": "[2]; 500 mg per day oral", "value": "raised total testosterone and bioavailable testosterone levels substantially and safely"}, {"measurement": "added benefits of high dosage", "setting": "[2]; 750 mg per day oral", "value": "no added benefits were seen"}, {"measurement": "plasma testosterone levels in men", "setting": "[2]; general statement, dose not stated", "value": "substantial and significant increases"}, {"measurement": "plasma estradiol levels in men", "setting": "[2]; general statement, relative to accepted normal limits", "value": "no changes outside the accepted normal limits"}, {"measurement": "increase of plasma free testosterone levels", "setting": "[2]; oral administration, dose not stated", "value": "more than 100%"}, {"measurement": "ESTRADIOL", "setting": "[2]; 25 mg per day oral single dose, DAY 7, baseline 47 pg/mL", "value": 28, "unit": "pg/mL"}, {"measurement": "BIOAVAILABLE TESTOSTERONE", "setting": "[2]; 25 mg per day oral single dose, DAY 7, baseline 843 pg/mL", "value": 966, "unit": "pg/mL"}, {"measurement": "DHT", "setting": "[2]; 25 mg per day oral single dose, DAY 7, baseline 42 ng/dL", "value": 36, "unit": "ng/dL"}, {"measurement": "TOTAL TESTOSTERONE", "setting": "[2]; 25 mg per day oral single dose, DAY 7, baseline (day 0) 6,290 pg/mL", "value": "6,400 pg/mL"}, {"measurement": "ESTRADIOL", "setting": "[2]; 25 mg per day oral single dose, DAY 14, baseline 47 pg/mL", "value": 23, "unit": "pg/mL"}, {"measurement": "BIOAVAILABLE TESTOSTERONE", "setting": "[2]; 25 mg per day oral single dose, DAY 14, baseline 843 pg/mL", "value": "1,014 pg/mL"}, {"measurement": "DHT", "setting": "[2]; 25 mg per day oral single dose, DAY 14, baseline 42 ng/dL", "value": 49, "unit": "ng/dL"}, {"measurement": "TOTAL TESTOSTERONE", "setting": "[2]; 25 mg per day oral single dose, DAY 14, baseline (day 0) 6,290 pg/mL", "value": "7,090 pg/mL"}, {"measurement": "ESTRADIOL", "setting": "[2]; 50 mg per day oral single dose, DAY 7, baseline 36 pg/mL", "value": 35, "unit": "pg/mL"}, {"measurement": "BIOAVAILABLE TESTOSTERONE", "setting": "[2]; 50 mg per day oral single dose, DAY 7, baseline 169.7 pg/mL", "value": 209, "unit": "pg/mL"}, {"measurement": "DHT", "setting": "[2]; 50 mg per day oral single dose, DAY 7, baseline 47 ng/dL", "value": 46, "unit": "ng/dL"}, {"measurement": "TOTAL TESTOSTERONE", "setting": "[2]; 50 mg per day oral single dose, DAY 7, baseline (day 0) 8,570 pg/mL", "value": "11,000 pg/mL"}, {"measurement": "ESTRADIOL", "setting": "[2]; 50 mg per day oral single dose, DAY 14, baseline 36 pg/mL", "value": 36, "unit": "pg/mL"}, {"measurement": "BIOAVAILABLE TESTOSTERONE", "setting": "[2]; 50 mg per day oral single dose, DAY 14, baseline 169.7 pg/mL", "value": 209, "unit": "pg/mL"}, {"measurement": "DHT", "setting": "[2]; 50 mg per day oral single dose, DAY 14, baseline 47 ng/dL", "value": 49, "unit": "ng/dL"}, {"measurement": "TOTAL TESTOSTERONE", "setting": "[2]; 50 mg per day oral single dose, DAY 14, baseline (day 0) 8,570 pg/mL", "value": "11,000 pg/mL"}, {"measurement": "ESTRADIOL", "setting": "[2]; 100 mg per day oral single dose, DAY 7, baseline 46 pg/mL", "value": 44, "unit": "pg/mL"}, {"measurement": "BIOAVAILABLE TESTOSTERONE", "setting": "[2]; 100 mg per day oral single dose, DAY 7, baseline 794 pg/mL", "value": "1,432 pg/mL"}, {"measurement": "DHT", "setting": "[2]; 100 mg per day oral single dose, DAY 7, baseline 35 ng/dL", "value": 48, "unit": "ng/dL"}, {"measurement": "TOTAL TESTOSTERONE", "setting": "[2]; 100 mg per day oral single dose, DAY 7, baseline (day 0) 4,700 pg/mL", "value": "7,910 pg/mL"}, {"measurement": "ESTRADIOL", "setting": "[2]; 100 mg per day oral single dose, DAY 14, baseline 46 pg/mL", "value": 34, "unit": "pg/mL"}, {"measurement": "BIOAVAILABLE TESTOSTERONE", "setting": "[2]; 100 mg per day oral single dose, DAY 14, baseline 794 pg/mL", "value": "1,957 pg/mL"}, {"measurement": "DHT", "setting": "[2]; 100 mg per day oral single dose, DAY 14, baseline 35 ng/dL", "value": 41, "unit": "ng/dL"}, {"measurement": "TOTAL TESTOSTERONE", "setting": "[2]; 100 mg per day oral single dose, DAY 14, baseline (day 0) 4,700 pg/mL", "value": "9,050 pg/mL"}]}
